60 compounds from article PMC12040169 (PLOS Biology, 2025) can be followed below.

A short description of one series: in vitro. The note with it: human, hela cells, % viability.
For the compound `CCC1CN(C(C)=O)CCC1NCc1ccc(OCC(N)=O)cc1` (stereo not drawn) [CBK305168], the viability at 28.5 h, 10 µM is 102%.
On the same count and under the same terms, with `CC1CCC(N(Cc2nnc(C(C)C)o2)CC2CCCO2)CC1` (stereo not drawn) [CBK305169] the figure was 89.7%.
In the case of `CN(C(=O)Cn1cccn1)c1nc2c(s1)CC(c1ccccc1)CC2` (stereo not drawn) [CBK305173], the viability at 28.5 h, 10 µM came out at 102%.
Consider `Cc1nn(C)c2ncc(S(=O)(=O)Nc3ccc(F)cn3)cc12` [CBK305175], for which the viability at 28.5 h, 10 µM was found to be 95.1%.
For `CCC(C)N(C)CCNC(=O)Nc1ccc(F)c(-n2nnnc2C)c1` (stereo not drawn) [CBK305176], the viability at 28.5 h, 10 µM turned out to be 101%.
In the case of `Cn1cc(N2CCCC(NC(=O)Nc3cccc(C#N)c3)C2)cn1` (stereo not drawn) [CBK305179], the viability at 28.5 h, 10 µM worked out at 91.3%.
As to `c1cn2cnnc2c(N2CCc3sccc3C2)n1` [CBK305180], the viability at 28.5 h, 10 µM was determined as 96.6%.
For `Cc1ccccc1Nc1nc(N)nc(CN2CCOC3CCCC32)n1` (stereo not drawn) [CBK305181], the viability at 28.5 h, 10 µM worked out at 97.6%.
`Cn1cc(N2CCC(NC(=O)c3ccc(C#N)cc3)C2=O)cn1` (stereo not drawn) [CBK305182]: the viability at 28.5 h, 10 µM stood at 94%.
For the compound `COC(=O)c1ncn(CC(=O)N2CCCCCC2)n1` [CBK305184], the viability at 28.5 h, 10 µM was determined as 98.9%.
Consider `O=C(Cn1nc2n(c1=O)CCCCC2)NCC(O)c1ccc(F)cc1` (stereo not drawn) [CBK305187], for which the viability at 28.5 h, 10 µM came out at 95.6%.
For `CC(C)c1ccsc1C(=O)N1CCC2(C1)NC(=O)NC2=O` (stereo not drawn) [CBK305188], the viability at 28.5 h, 10 µM was 87.1%.
On to `c1csc(N2CCCN(c3nccn4cnnc34)CC2)n1` [CBK305190], for which the viability at 28.5 h, 10 µM turned out to be 82.4%.
Take `CC(C)Oc1ncc(C(=O)NCCCC(=O)O)cc1Cl` [CBK305192]: the viability at 28.5 h, 10 µM came to 107%.
As to `Cn1ncc2c1CCCC2NC(=O)NCc1ccc(C#N)cc1F` (stereo not drawn) [CBK305193], the viability at 28.5 h, 10 µM came to 85.4%.
On to `Cc1nn(C)c(C)c1CCC(=O)NCC(C)Oc1ccccc1F` (stereo not drawn) [CBK305194], for which the viability at 28.5 h, 10 µM was 94.3%.
As to `CC(=O)Nc1ccc(Cc2nc(C3CC3)no2)cc1` [CBK305197], the viability at 28.5 h, 10 µM came out at 92.1%.
For `O=C(NCC1(O)CCSCC1)c1cc2ccccc2[nH]1` [CBK305199], the viability at 28.5 h, 10 µM worked out at 94.9%.
Take `CCn1ncc2c1CCCC2NC1CCN(c2ccc(C#N)cc2)C1=O` (stereo not drawn) [CBK305200]: the viability at 28.5 h, 10 µM was 96.8%.
Take `CC(C)c1noc(C(C)N2CCN(Cc3noc(C(C)(C)C)n3)CC2)n1` (stereo not drawn) [CBK305202]: the viability at 28.5 h, 10 µM came to 84.4%.
Consider `CC(C)(C)c1n[nH]c(C2CN(C(=O)CCc3cscn3)CCO2)n1` (stereo not drawn) [CBK305205], for which the viability at 28.5 h, 10 µM came to 89.7%.
Still for that read-out and setting: with `CCN(CC)C1CCN(C(=O)Nc2cc(NC(C)=O)ccc2F)C1` (stereo not drawn) [CBK305207] the figure was 88.7%; with `Cc1noc(CN2CCN(CCc3ccc4c(c3)CCO4)CC2)n1` [CBK305208], 102%.
As for `O=C1NC2(CCC2)C(=O)N1Cc1coc(-c2cccs2)n1` [CBK305209], the viability at 28.5 h, 10 µM was 95.9%.
For the compound `Cc1cc(F)ccc1S(=O)(=O)NCC1CC(=O)Nc2ccccc21` (stereo not drawn) [CBK305210], the viability at 28.5 h, 10 µM came out at 86.5%.
For the compound `O=C(NCC1(O)CCSCC1)c1ccc2ccccc2n1` [CBK305211], the viability at 28.5 h, 10 µM was 85%.
Still for that read-out and setting: the value for `Cc1nc(S(=O)(=O)CCn2cccn2)n(C2CCCCC2)c1C` [CBK305217] was 102%; that for `CCCC(=O)Nc1ccc(OCc2ncc(C(C)(C)C)o2)c(C(C)=O)c1` [CBK305218] was 86.2%.
On the same count and under the same terms, with `Cn1cc(C(O)CNC(=O)NCCc2csc3ccccc23)cn1` (stereo not drawn) [CBK305219] the figure was 95.2%; with `CCN(CC(=O)NCc1ccc(F)cc1)C(=O)c1cc(C#N)c[nH]1` [CBK305221], 87.9%.
Turning to `CC(C)c1n[nH]c(C2CN(Cc3nc4c(F)cccc4[nH]3)CCO2)n1` (stereo not drawn) [CBK305225], the viability at 28.5 h, 10 µM was 98.8%.
For `CN(CC1CC1)C(=O)Cn1cnc2c(F)cc(Br)cc2c1=O` [CBK305227], the viability at 28.5 h, 10 µM worked out at 87.2%.
On the same count and under the same terms, the value for `O=C(Cn1cnc2c(F)cc(Br)cc2c1=O)N1CCOC2CCCCC21` (stereo not drawn) [CBK305229] was 89.2%; that for `CC(NC(=O)N1CCSCC1)c1cccc(N2CCCC2)c1` (stereo not drawn) [CBK305230] was 92%.
On to `Cc1cccn2c(=O)cc(CN3CCn4c(nnc4C4CC4)C3)nc12` [CBK305232], for which the viability at 28.5 h, 10 µM turned out to be 102%.
Same read-out and setting: with `N#Cc1ccc(Cn2cnc(NC(=O)c3cnccn3)n2)cc1` [CBK305233] the figure was 88.5%.
Take `CC(C)c1cccc(-n2cc(O)c(C(=O)NCCC(=O)N(C)C)n2)c1` [CBK305234]: the viability at 28.5 h, 10 µM worked out at 86.5%.
With `CCNC(=O)C1(NC(=O)c2cn3ccccc3n2)CCCCC1` [CBK305240], the viability at 28.5 h, 10 µM came to 102%.
Turning to `O=C(NCc1cc(Br)ccc1F)C1CC(=O)N(Cc2ccccn2)C1` (stereo not drawn) [CBK305242], the viability at 28.5 h, 10 µM stood at 85.7%.
`Cc1cc(C(=O)N2CCCC2c2ccc[nH]2)c2c(C)noc2n1` (stereo not drawn) [CBK305245]: the viability at 28.5 h, 10 µM was 91.5%.
For the compound `O=C(Nc1ncccc1O)c1cnc2c(cnn2C2CCCC2)c1` [CBK305246], the viability at 28.5 h, 10 µM amounted to 99.9%.
On the same count and under the same terms, with `CCOC(=O)C(CNC(=O)c1cnc(C)c(Br)c1Cl)Cc1ccccc1` (stereo not drawn) [CBK305247] the figure was 99.6%; with `Cc1nc(CC(=O)Nc2ccc(N3CCOCC3)cn2)cs1` [CBK305251], 91%; with `CS(=O)(=O)NC1CCN(C2CCc3c(Cl)cccc32)CC1` (stereo not drawn) [CBK305252], 93.7%.
For `Cc1cc(C)n(-c2ccc(N3CCC4(CC3)OCCO4)nn2)n1` [CBK305255], the viability at 28.5 h, 10 µM worked out at 97.8%.
Still for that read-out and setting: the value for `O=C(NCCCN1CCc2ccccc2C1)C1CC1c1ccco1` (stereo not drawn) [CBK305257] was 91.8%.
Same read-out and setting: with `CC(NC(=O)CCc1cscn1)c1nc(-c2ccncc2)cs1` (stereo not drawn) [CBK305260] the figure was 77.6%; with `Cc1ccc(N2CCCN(C(=O)COc3ccccc3F)CC2)nn1` [CBK305261], 99.4%.
For the compound `Cc1ccn(-c2ccc(N3CCOC4(CCCC4)C3)nn2)n1` [CBK305262], the viability at 28.5 h, 10 µM amounted to 87.9%.
As to `CC(C)(C)OC(=O)N1CCCN(Cc2nnc(-c3ccco3)o2)CC1` [CBK305271], the viability at 28.5 h, 10 µM amounted to 103%.
As for `Cc1cc(C)n2nc(CCCOC(=O)c3ccn(C(C)C)n3)nc2n1` [CBK305272], the viability at 28.5 h, 10 µM worked out at 112%.
Take `CC(=O)NC(Cc1c[nH]c2ccccc12)C(=O)N(C)Cc1cnn(C)c1` (stereo not drawn) [CBK305274]: the viability at 28.5 h, 10 µM worked out at 84.3%.
Still for that read-out and setting: the value for `CCN(CCO)C(=O)NC1CCCc2c1cnn2Cc1ccccc1` (stereo not drawn) [CBK305277] was 91.5%.
`Cn1ncnc1CNc1ccc(S(=O)(=O)N2CCCCCC2)cc1` [CBK305278]: the viability at 28.5 h, 10 µM stood at 90.1%.
Regarding `O=C(NCCc1ccccn1)N1CCCN(Cc2cccs2)CC1` [CBK305283], the viability at 28.5 h, 10 µM stood at 80.5%.
Turning to `Cc1nc(CC(=O)OC(C)C(=O)N2CCCc3ccccc32)cs1` (stereo not drawn) [CBK305285], the viability at 28.5 h, 10 µM was 91.6%.
As to `COCCn1cc(C(=O)N2CCCC2c2ccncc2)c2ccccc21` (stereo not drawn) [CBK305286], the viability at 28.5 h, 10 µM stood at 91.8%.
On to `COCCn1cc(C(=O)N2CCN3CCCCC3C2)c2ccccc21` (stereo not drawn) [CBK305287], for which the viability at 28.5 h, 10 µM was 107%.
Still for that read-out and setting: with `CCN(CC(C)C#N)C(=O)c1nnn(-c2ccc3ncccc3c2)c1C` (stereo not drawn) [CBK305292] the figure was 86.3%.

Staying with this series, now noted: human, hela cells, % viability, bulk resorufin, single well.
With `CCC(NC(=O)c1cn(CCOC)c2ccccc12)c1ccncc1` (stereo not drawn) [CBK305186], the viability at 28.5 h, 10 µM was 95.7%.
